According to US10940139B2, “Compounds that interact with the Ras superfamily for the treatment of cancers, inflammatory diseases, rasopathies, and fibrotic disease” (Shy Therapeutics LLC, priority 2017, dated 2021):
Read-outs that look alike come from different tables or passages of the source.

Experiments:
Assay in all cases: Ras GTP binding domain inhibition assay (labeled GTP)
Details in all cases: 20 μM compound
[1] = target: KRas G12D/Q61H double mutant (Homo sapiens (Human), UniProt P01116, G12D/Q61H)
Sequence of KRas G12D/Q61H double mutant (P01116-2 other isoform, or with tags, fused parts or gaps G12D/Q61H): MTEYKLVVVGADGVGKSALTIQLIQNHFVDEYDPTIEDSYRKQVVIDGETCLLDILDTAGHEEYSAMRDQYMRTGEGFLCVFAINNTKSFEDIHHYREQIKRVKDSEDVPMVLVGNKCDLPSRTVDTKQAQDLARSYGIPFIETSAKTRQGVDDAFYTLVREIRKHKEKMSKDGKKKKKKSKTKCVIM
Method in brief: (§1)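 Ni-plate capture of His-KRas (3-10 μg/ml, o/n, 4° C); Tris pH 7.5/MgCl2/DTT buffer, 1% DMSO. Cpd 20 μM or titration, 3 h RT. Cy3/Cy5-GTP 45 min RT, wash, fluorescence of bound GTP.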

KRas Q61H mutant = KRas Q61H mutant (Homo sapiens (Human), UniProt P01116, Q61H)
Sequence of KRas Q61H mutant (P01116-2 other isoform, or with tags, fused parts or gaps Q61H): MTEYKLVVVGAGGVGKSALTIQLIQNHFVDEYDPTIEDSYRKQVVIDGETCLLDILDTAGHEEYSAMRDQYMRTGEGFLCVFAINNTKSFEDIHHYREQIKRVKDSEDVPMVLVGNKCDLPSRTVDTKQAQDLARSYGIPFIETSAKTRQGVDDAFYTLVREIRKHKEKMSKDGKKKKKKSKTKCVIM
Method in brief: as §1

[2] = target: KRas G12C/Q61H double mutant (Homo sapiens (Human), UniProt P01116, G12C/Q61H)
Sequence of KRas G12C/Q61H double mutant (P01116-2 other isoform, or with tags, fused parts or gaps G12C/Q61H): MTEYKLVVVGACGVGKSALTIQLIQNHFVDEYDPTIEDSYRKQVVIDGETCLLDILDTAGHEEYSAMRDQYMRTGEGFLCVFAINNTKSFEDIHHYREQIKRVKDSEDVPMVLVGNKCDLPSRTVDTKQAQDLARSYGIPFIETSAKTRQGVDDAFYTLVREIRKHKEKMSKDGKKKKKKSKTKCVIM
Method in brief: as §1

[3] = read-out: % Inhibition at 20 μM KRas G12D Q61H
[4] = read-out: % Inhibition at 20 μM KRas Q61H
[5] = read-out: % Inhibition at 20 μM KRas G12C Q61H
[6] = KRas G12D/Q61H double mutant, read-out: % Inhibition at 20 μM of K-Ras mutant and wild-type protein, KRas G12D Q61H
[7] = KRas Q61H, read-out: % Inhibition at 20 μM of K-Ras mutant and wild-type protein, KRas Q61H
[8] = KRas G12C/Q61H double mutant, read-out: % Inhibition at 20 μM of K-Ras mutant and wild-type protein, KRas G12C Q61H

Structure (SMILES)	inhibition at 20 µM [1, 3] [%]	inhibition at 20 µM (KRas Q61H mutant; [4]) [%]	inhibition at 20 µM [2, 5] [%]	inhibition at 20 µM [1, 6] [%]	inhibition at 20 µM (KRas Q61H mutant; [7]) [%]	inhibition at 20 µM [2, 8] [%]
O=C(c1cc2nc(-c3ccccn3)nc(O)c2s1)N1CCOC(c2ccccc2)C1 (stereo not drawn) [drawing 2842]	51 to 75	76 to 100	51 to 75	–	–	–
CC(C)(C)c1sc2c(O)nc(-c3ccccn3)nc2c1Br [drawing 3554]	–	–	–	25 to 50	51 to 75	25 to 50
Cn1cnc(-c2nc(O)c3c(-c4ccccc4)c(-c4ccc(CNC(=O)OC(C)(C)C)cc4)sc3n2)c1 [drawing 3537]	–	–	–	1 to 25	1 to 25	1 to 25
Oc1nc(-c2ccccn2)nc2c(C3CCCCC3)csc12 [drawing 3511]	–	–	–	25 to 50	51 to 75	25 to 50
Nc1nc(-c2ccccn2)nc2c(-c3ccccc3Cl)csc12 [drawing 2835]	1 to 25	1 to 25	1 to 25	–	–	–
Cc1c(-c2csc3c(O)nc(-c4ccccn4)nc23)cnn1C [drawing 3505]	–	–	–	51 to 75	76 to 100	51 to 75
O=C(c1csc2c(O)nc(-c3ccccn3)nc12)N1CCOC(CN2CCOCC2)C1 (stereo not drawn) [drawing 2805]	1 to 25	51 to 75	25 to 50	–	–	–
COc1nccc(CCNC(=O)c2csc3nc(-c4ccccn4)nc(N4CCOCC4)c23)n1 [drawing 2897]	1 to 25	25 to 50	25 to 50	–	–	–
O=C(NCCc1nnn[nH]1)c1csc2nc(-c3ccccn3)nc(N3CCOCC3)c12 [drawing 2786]	1 to 25	51 to 75	25 to 50	–	–	–
NC(=O)C1CCCN1C(=O)c1cccc(-c2cc3nc(N)nc(O)c3s2)c1 (stereo not drawn) [drawing 3544]	–	–	–	0	1 to 25	1 to 25
O=C(c1csc2c(O)nc(-c3ccccn3)nc12)N1CCOC(c2cccc(F)c2)C1 (stereo not drawn) [drawing 2732]	25 to 50	1 to 25	1 to 25	–	–	–
COc1cnc(CNC(=O)c2c(C)sc3c(O)nc(-c4ccccn4)nc23)[nH]c1=O [drawing 3523]	–	–	–	0	0	1 to 25
COCC(C)Nc1nc(-c2ccccn2)nc(C(=O)NCCCc2c[nH]cn2)c1Oc1ccccc1 (stereo not drawn) [drawing 3550]	–	–	–	1 to 25	1 to 25	1 to 25
O=C(NCCc1ccnc(O)c1)c1csc2nc(-c3ccccn3)nc(N3CCOCC3)c12 [drawing 2783]	1 to 25	1 to 25	1 to 25	–	–	–
O=C(NCCc1cnc(O)nc1)c1csc2nc(-c3ccccn3)nc(N3CCS(=O)(=O)CC3)c12 [drawing 2854]	25 to 50	25 to 50	1 to 25	–	–	–
COc1nc(-c2ccccn2)nc2c(C3CCCCC3)csc12 [drawing 3479]	–	–	–	1 to 25	1 to 25	0
O=C(NCCc1ccnc(O)n1)c1csc2nc(-c3ccccn3)nc(N3CCOCC3)c12 [drawing 2898]	1 to 25	51 to 75	51 to 75	–	–	–
CC(C)(C(=O)Nc1ccnc(-c2ccccn2)n1)c1ccc(C#N)cc1 [drawing 2751]	1 to 25	51 to 75	51 to 75	–	–	–
Oc1nc(-c2ccccn2)nc2c(-c3ccc(Cl)c(Cl)c3)csc12 [drawing 3463]	–	–	–	25 to 50	25 to 50	1 to 25
Oc1nc(-c2ccccn2)nc2c(CC3CNC3)csc12 [drawing 3519]	–	–	–	25 to 50	51 to 75	51 to 75
Cc1sc2nc(-c3ccccn3)nc(N)c2c1Br [drawing 3484]	–	–	–	25 to 50	25 to 50	25 to 50

Structure (SMILES)	inhibition at 20 µM [1, 3] [%]	inhibition at 20 µM (KRas Q61H mutant; [4]) [%]	inhibition at 20 µM [2, 5] [%]	inhibition at 20 µM [1, 6] [%]	inhibition at 20 µM (KRas Q61H mutant; [7]) [%]	inhibition at 20 µM [2, 8] [%]
O=C(c1csc2c(O)nc(-c3ccccn3)nc12)N1CCN(c2ccc(F)cc2F)CC1 [drawing 2760]	51 to 75	25 to 50	25 to 50	–	–	–
COc1cccc(N2CCN(C(=O)c3csc4c(O)nc(-c5ccccn5)nc34)CC2)c1 [drawing 2713]	1 to 25	51 to 75	51 to 75	–	–	–
COc1ccnc(-c2nc(O)c3c(C(F)(F)F)csc3n2)c1 [drawing 2833]	25 to 50	25 to 50	25 to 50	–	–	–
O=C(c1csc2c(O)nc(-c3ccccn3)nc12)N1CCOC(c2cccc(Cl)c2)C1 (stereo not drawn) [drawing 2770]	1 to 25	51 to 75	25 to 50	–	–	–
Oc1nc(-c2ccccn2)nc2c3c(sc12)CNC3 [drawing 3477]	–	–	–	51 to 75	76 to 100	76 to 100
N#Cc1cccc(-c2csc3c(O)nc(-c4ccccn4)nc23)c1 [drawing 3503]	–	–	–	1 to 25	25 to 50	1 to 25
O=C(NCCc1ccncn1)c1csc2nc(-c3ccccn3)nc(N3CCOCC3)c12 [drawing 3500]	–	–	–	25 to 50	51 to 75	25 to 50
COc1ccc(N2CCN(C(=O)c3csc4c(O)nc(-c5ccccn5)nc34)CC2)c(OC)c1 [drawing 2759]	25 to 50	51 to 75	51 to 75	–	–	–
Cc1cnc(-c2ccccn2)nc1NC(=O)C(C)c1ccc(C#N)cc1 (stereo not drawn) [drawing 2797]	1 to 25	51 to 75	51 to 75	–	–	–
COC(=O)c1c(C)sc2c(N)nc(-c3ccccn3)nc12 [drawing 3499]	–	–	–	51 to 75	76 to 100	51 to 75
Cn1cnc(-c2nc(O)c3sc(-c4ccncc4)c(-c4ccccc4)c3n2)c1 [drawing 3549]	–	–	–	0	1 to 25	1 to 25
Oc1nc(-c2ccccn2)nc2c(-c3ccc(C4CCC4)cc3)csc12 [drawing 2865]	51 to 75	51 to 75	51 to 75	–	–	–
COC(=O)c1c(C)sc2nc(-c3ccccn3)nc(N)c12 [drawing 3485]	–	–	–	51 to 75	25 to 50	25 to 50
Oc1nc(-c2ccccn2)nc2c(CC3CCNCC3)csc12 [drawing 3486]	–	–	–	51 to 75	51 to 75	51 to 75
Oc1nc(-c2ccccn2)nc2c(-c3cc(C(F)(F)F)ccc3F)csc12 [drawing 3465]	–	–	–	1 to 25	1 to 25	1 to 25
O=C(c1csc2c(O)nc(-c3ccccn3)nc12)N1CCN(c2cccc(F)c2)CC1 [drawing 2753]	25 to 50	76 to 100	51 to 75	–	–	–
COc1cnc(CN)[nH]c1=O [drawing 2801]	25 to 50	25 to 50	1 to 25	–	–	–
COc1nc(-c2ccccn2)nc2c(C3CC3)csc12 [drawing 3489]	–	–	–	1 to 25	0	0
COc1ccc(N2CCN(C(=O)c3csc4c(O)nc(-c5ccccn5)nc34)CC2)cc1O [drawing 2802]	1 to 25	51 to 75	51 to 75	–	–	–
O=C(NCCc1ccncc1)c1csc2nc(-c3ccccn3)nc(N3CCOCC3)c12 [drawing 2779]	0	51 to 75	51 to 75	–	–	–
